From US20250222063A1, “TOPICAL FORMULATION FOR USE IN THE TREATMENT OR PREVENTION OF DRY ITCHY SKIN” (MC2 THERAPEUTICS LTD, priority 2022, published 2025)
Residues, ends and D or L forms follow the SMILES beside them.

How the values were obtained:
[1] = test system: bovine serum albumin (BSA); experiment: In vitro protein carbamylation assay (14C-potassium cyanate, scintillation counting); assay type: biochemical; details: for Degree of carbamylation (% relative to HBSS control): 10 mM nucleophile, 75 μM BSA, 25 μM 14C-Potassium Cyanate, 37° C., 72 hours, n=3; for scavenger potential: summary in words
Procedure: The tests were performed as described below. 200 μL of a 0.5% BSA solution, 200 μL of test solution and 100 μL of a 5 μCi/mL 14 C-Potassium Cyanate solution was mixed in an Eppendorf tube (corresponding to a final concentration of 75 μM BSA, 25 μM 14 C-Potassium Cyanate, and 10 mM nucleophile). Samples run in triplicates (n=3). The Eppendorf tubes were incubated at 37° C. for 72 hours.
After incubation a volume of 100 μL of each sample was transferred to a new Eppendorf tube containing 100 μL of a 10% trichloroacetic acid (TCA) and kept at 4° C. overnight (for precipitation of BSA). Subsequently, the precipitated BSA was separated from the buffer by centrifugation (10000 rpm, 30 seconds). The supernatant was removed and the BSA pellet 10 was resuspended in 200 μL of a 10% solution of cold TCA (4° C.). The pellet was recovered by centrifugation (10000 rpm, 30 seconds) and supernatant was discarded. The BSA pellet was resuspended in 100 μL purified water (MilliQ) and transferred to a scintillation vial. The Eppendorf tube (previously containing the BSA pellet) was rinsed with an additional 100 μL purified water which al was transferred to the relevant scintillation vial.

[2] = Skin homogenate study (degradation half-life, LC-MS/MS); assay type: in vitro ADME, human; details: for Half life in skin homogenate: pooled human skin homogenate, 37° C., compound working solution 40 μg/mL mixed with equal volume of homogenate; for degradation: summary in words, given as in vivo
Procedure: To identify which of the dipeptides was readily subject to degradation by proteases and other cell processes in the skin, a number of compounds where tested in a skin homogenate study as described below and the results are listed in table 3.
Dermatomed human skin from multiple skin donors was pooled, homogenized, and adjusted to a tissue concentration of 100 mg tissue per mL of homogenate. The homogenate was used immediately following preparation without any additional freeze/thaw cycles. Working solutions of each compound were prepared in Dulbecco's phosphate-buffered saline (DPBS) at 40 μg/mL. All solutions were pre-heated to 37° C. Equal volumes of skin homogenate and compound working solution were combined, mixed, held at 37° C., and sampled at 0, 15, 30, 60, 120, and 240 minutes. Samples were quenched with acidic acetonitrile, centrifuged, and prepared for LC-MS/MS analysis. Peak areas of each compound at each time-point were determined by LC-MS/MS.
The individual half-life of each dipeptide was determined.
The nature of the experiment should be considered indicative of the relative stability of each of the compounds rather than an absolute correlation to what would happen in vivo. The process of homogenizing the skin is likely to greatly accelerate the degradation. However, it is clear that there is substantial variation in the relative rates for each dipeptide. (See Table 3)

[3] = ACD/Labs calculated Log P; details: summary in words, judged from Log P
Excerpt: It is well known in the art that compounds for a given molecular weight with more extreme Log P values are less likely to permeate the skin barrier well. Whether that be extremely hydrophilic (Log P<−2) or extremely hydrophobic (Log P>2) (16).). All of the dipeptides have a molecular weight below 400 therefore a good approximation of their relative permeation potential is their Log P. According to the ACD/Labs calculated Log P values Ala-Gln is the one of the most hydrophilc in nature with a Log P of −4.4.

[4] = Aqueous stability in HBSS buffer at 40° C. (HPLC-UV); assay type: physicochemical; details: for 1 month aqueous stability at 40° C. / 3 month aqueous stability at 40° C.: 3% wt/wt or 0.4% wt/wt in HBSS buffer, glass vials, HPLC-UV, in % (unit assumed); for aqueous stability: summary in words
Procedure: An important aspect of formulating a stable topical product. Data in Table 4 below gives 1 month and 3 month stability data at 40° C. Compounds were dissolved at 3% wt/wt or 0.4% wt/wt (if 3% was not possible) in HBSS buffer and stored in glass vials at temperature. Samples were subsequently analyzed by HPLC-UV.

[5] = Solubility (stated in words); assay type: physicochemical; details: summary in words

With C[C@H](N)C(=O)N[C@@H](CCC(N)=O)C(=O)O [Ala-Gln] (H-Ala-Gln-OH) the “Degree of carbamylation (% relative to HBSS control)” value [1] was 34.8 % relative to HBSS control, the scavenger potential [1] was “good” and the “Half life in skin homogenate” value [2] was less than 5 min. For the same compound, the degradation [2] was “rapid”, the transdermal penetration potential [3] was “poor” and the “1 month aqueous stability at 40° C.” value [4] was 100.6. The “3 month aqueous stability at 40° C.” value [4] was 100.1, the aqueous stability [4] was “good” and the solubility [5] was “good”.

In the case of C[C@H](N)C(=O)N[C@@H](CCC(=O)O)C(=O)O [Ala-Glu] (H-Ala-Glu-OH), the “Degree of carbamylation (% relative to HBSS control)” value [1] is reported as 20.4 % relative to HBSS control, the scavenger potential [1] is reported as “good” and the “Half life in skin homogenate” value [2] is reported as 39 min. For the same compound, the degradation [2] was “rapid”, the transdermal penetration potential [3] was “poor” and the “1 month aqueous stability at 40° C.” value [4] was 99.1. For the same compound, the “3 month aqueous stability at 40° C.” value [4] was 99.0, the aqueous stability [4] was “good” and the solubility [5] was “good”.

In the case of NCC(=O)N[C@@H](CCCN=C(N)N)C(=O)O [Gly-Arg] (H-Gly-Arg-OH), the scavenger potential [1] is reported as “good”, the “Half life in skin homogenate” value [2] is reported as 45 min and the degradation [2] is reported as “rapid”. For the same compound, the transdermal penetration potential [3] was “poor”, the aqueous stability [4] was “good” and the solubility [5] was “good”.
